Among the test systems are KM12 colon; HCT-116 colon; A498 renal; SW-620 colon; IGROV1 ovarian; SN12C renal; MCF7 breast; SK-MEL-2 melanoma; HCT-15 colon; UACC-62 melanoma.
Holding throughout (experiment): NCI-60 cell line screen, 48 h

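Tested at 5 concentrations; 48 h exposure; 96-well plates; endpoints linearly interpolated, else capped at highest concentration. GI50: concentration for 50% inhibition of growth. TGI: total growth inhibition.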

With `Cc1cc(Nc2ncc3c(n2)N(C)C(=O)N(c2cc(NC(=O)c4cccc(C(F)(F)F)c4)ccc2C)C3)n(C)n1`, the GI50 in the assay on KM12 colon was 0.321 µM; in the assay on HCT-116 colon, 0.0333 µM; in the assay with A498 renal, 0.0158 µM; in the assay with SW-620 colon it was 0.0539 µM; with IGROV1 ovarian, below 0.01 µM; in the assay on SN12C renal it was 0.0167 µM. In addition, the GI50 in the assay on MCF7 breast is 0.624 µM; in the assay with SK-MEL-2 melanoma, 0.0245 µM; in the assay on HCT-15 colon, 0.196 µM. Further, the TGI with KM12 colon is above 46.4 µM; in the assay on HCT-116 colon, 27.1 µM; in the assay on A498 renal, 0.0458 µM; in the assay on SW-620 colon it was above 46.4 µM; with IGROV1 ovarian it was 0.0524 µM; in the assay on SN12C renal, above 100 µM. Further, the TGI in the assay with MCF7 breast is above 46.4 µM; in the assay on SK-MEL-2 melanoma, 0.0764 µM; with HCT-15 colon it was above 46.4 µM.

Consider `CCCCCCn1c(-c2ccc(C(=O)O/N=C(\N)c3ccc4ccccc4c3)cc2)nc(-c2ccccc2)c1-c1ccccc1`, for which the GI50 was above 100 µM in the assay on KM12 colon; 4.2 µM with HCT-116 colon; 2.09 µM with A498 renal; above 100 µM in the assay with SW-620 colon; 22.6 µM with UACC-62 melanoma; above 100 µM in the assay with SN12C renal. Moreover, the GI50 was 4.3 µM in the assay on MCF7 breast, 25.6 µM in the assay on SK-MEL-2 melanoma and 7.53 µM in the assay on HCT-15 colon. For the same molecule, the TGI was above 100 µM in the assay with KM12 colon; above 100 µM in the assay with HCT-116 colon; above 26 µM in the assay on A498 renal; above 100 µM in the assay on SW-620 colon; above 100 µM with UACC-62 melanoma; above 100 µM with SN12C renal. Also, the TGI is above 100 µM in the assay on MCF7 breast, above 93.2 µM in the assay with SK-MEL-2 melanoma and above 100 µM in the assay on HCT-15 colon.

As for `COCCNc1ccc2c3c(cccc13)C(=O)N(CCN(C)C)C2=O`, the GI50 in the assay on KM12 colon was 8.65 µM; with HCT-116 colon, 6.65 µM; with A498 renal it was 6.16 µM; with SW-620 colon, 6.69 µM; in the assay on UACC-62 melanoma, 4.54 µM; in the assay with SN12C renal it was 7.23 µM. The GI50 in the assay on MCF7 breast was 6.5 µM; in the assay with SK-MEL-2 melanoma it was 8.24 µM; with HCT-15 colon it was 6.84 µM. For the same molecule, the TGI was above 25 µM with KM12 colon; above 25 µM in the assay on HCT-116 colon; 21.5 µM in the assay with A498 renal; above 25 µM with SW-620 colon; 14.4 µM in the assay on UACC-62 melanoma; above 25 µM with SN12C renal. Moreover, the TGI in the assay on MCF7 breast was 23.4 µM; in the assay on SK-MEL-2 melanoma it was above 25 µM; in the assay with HCT-15 colon it was above 25 µM.

`O=c1[nH]c(=O)c2cc3cc(C4CC(O)C(CO)O4)ccc3cc2[nH]1` (stereo unspecified): the GI50 was above 100 µM in the assay with HCT-116 colon; above 100 µM in the assay on A498 renal; above 100 µM with SW-620 colon; above 100 µM with UACC-62 melanoma; 1.7 µM with IGROV1 ovarian; above 100 µM in the assay on SN12C renal. Further, the figures for the GI50 in the assay with MCF7 breast, in the assay on SK-MEL-2 melanoma and with HCT-15 colon were above 100 µM, 11.3 µM and above 100 µM, respectively. For the same molecule, the TGI in the assay on HCT-116 colon, in the assay on A498 renal, with SW-620 colon, in the assay on UACC-62 melanoma, in the assay on IGROV1 ovarian and in the assay on SN12C renal was above 100 µM each time. For the same molecule, the TGI in the assay with MCF7 breast, in the assay with SK-MEL-2 melanoma and in the assay with HCT-15 colon was above 100 µM each time.

As to `C=C1C(=O)O[C@H]2[C@H]1CC/C(C=Nc1c(N)cc(C(F)(F)F)cc1C(F)(F)F)=C\CC[C@@]1(C)O[C@@H]21`, the GI50 in the assay with KM12 colon was 1.99 µM; in the assay on HCT-116 colon it was 1.06 µM; in the assay with A498 renal, 1.49 µM; in the assay on SW-620 colon, 1.23 µM; in the assay on UACC-62 melanoma, 1.28 µM; with MCF7 breast, 0.498 µM. In addition, the values for the GI50 with SK-MEL-2 melanoma and in the assay with HCT-15 colon were 1.41 µM and 1.05 µM, respectively. In addition, the TGI is 4.74 µM with KM12 colon; 2.52 µM in the assay on HCT-116 colon; 3.51 µM in the assay on A498 renal; 2.95 µM with SW-620 colon; 2.99 µM in the assay with UACC-62 melanoma; 2.34 µM with MCF7 breast. Besides, the TGI was 3.12 µM in the assay on SK-MEL-2 melanoma and 3.73 µM with HCT-15 colon.

On to `CCCc1cc(=O)n2c(C(=O)Nc3cccc(C(=O)OCC)c3)c(C(=O)Nc3ccc(F)cc3)sc2n1`, for which the GI50 in the assay with KM12 colon is 42.5 µM; with HCT-116 colon, 1.06 µM; with A498 renal, 8.57 µM; in the assay on SW-620 colon, 12 µM; in the assay with UACC-62 melanoma, 48.4 µM; in the assay with IGROV1 ovarian it was 24.8 µM. In addition, the GI50 is above 140 µM with MCF7 breast, 6.83 µM with SK-MEL-2 melanoma and 125 µM in the assay with HCT-15 colon. For the same molecule, the TGI was above 140 µM in the assay with KM12 colon; above 140 µM in the assay on HCT-116 colon; 32.2 µM with A498 renal; above 140 µM in the assay with SW-620 colon; above 140 µM in the assay on UACC-62 melanoma; 65.9 µM with IGROV1 ovarian. Besides, the TGI is above 140 µM in the assay with MCF7 breast, 27.6 µM in the assay on SK-MEL-2 melanoma and above 140 µM with HCT-15 colon.

Source of the values: PubChem BioAssay (NCI).
